Results reported in ChEMBL document CHEMBL1128000, “Synthesis and antiviral activity of a novel class of HIV-1 protease inhibitors containing a heterocyclic P1-P2 amide bond isostere” (Bioorg Med Chem Lett, 1994).

Key:
[1] = molecular target: Human immunodeficiency virus type 1 protease (Human immunodeficiency virus 1, UniProt Q72874); assay: Inhibitory activity against HIV-1 protease; conditions: read-out: Ki app
[2] = system: MOLT-4; assay: Compound was tested for in vitro inhibitory activity against HIV replication in MOLT-4 cells; assay type: functional, cell-based; conditions: Homo sapiens

Structure (SMILES)	Ki [1]	IC50 [2]
CCC(O)c1cnc([C@H](Cc2ccccc2)C[C@H](O)[C@H](Cc2ccccc2)NC(=O)OC(C)(C)C)s1 (some centres not stated)	720 nM	–
CC(C)c1cnc([C@H](Cc2ccccc2)C[C@H](O)[C@H](Cc2ccccc2)NC(=O)[C@@H](NC(=O)OCc2ccccc2)C(C)C)[nH]1	0.6 nM	100 nM
CCCc1cnc([C@H](Cc2ccccc2)C[C@H](O)[C@H](Cc2ccccc2)NC(=O)OC(C)(C)C)s1 (stereo in doubt; form 1)	700 nM	–
CCc1cnc([C@H](Cc2ccccc2)C[C@H](O)[C@H](Cc2ccccc2)NC(=O)OC(C)(C)C)s1	2000 nM	–
CCCCc1cnc([C@H](Cc2ccccc2)C[C@H](O)[C@H](Cc2ccccc2)NC(=O)OC(C)(C)C)s1	26000 nM	–
CNC(=O)c1c[nH]c([C@H](Cc2ccccc2)C[C@H](O)[C@H](Cc2ccccc2)NC(=O)OC(C)(C)C)n1	3700 nM	–
CC(C)c1cnc([C@H](Cc2ccccc2)C[C@H](O)[C@H](Cc2ccccc2)NC(=O)[C@@H](NC(=O)OC(C)(C)C)C(C)C)[nH]1	300 nM	–
CCC(CC)C(=O)c1cnc([C@H](Cc2ccccc2)C[C@H](O)[C@H](Cc2ccccc2)NC(=O)OC(C)(C)C)[nH]1	46 nM	850 nM
CC(=O)N[C@@H](C(=O)N[C@@H](Cc1ccccc1)[C@@H](O)C[C@@H](Cc1ccccc1)c1nc(C(C)C)c[nH]1)C(C)C	150 nM	–
CC(C)(C)OC(=O)N[C@@H](Cc1ccccc1)[C@@H](O)C[C@@H](Cc1ccccc1)c1nc[nH]n1	5800 nM	–
COC(=O)N[C@H](C(=O)N[C@@H](Cc1ccccc1)[C@@H](O)C[C@@H](Cc1ccccc1)c1nc(C(C)C)c[nH]1)C(C)C	2.1 nM	50 nM
CC(=O)N[C@H](C(=O)N[C@@H](Cc1ccccc1)[C@@H](O)C[C@@H](Cc1ccccc1)c1ncc(C(C)C)[nH]1)C(C)C	1 nM	40 nM
CC(C)c1c[nH]c([C@H](Cc2ccccc2)C[C@H](O)[C@H](Cc2ccccc2)NC(=O)[C@@H](NC=O)C(C)C)n1	4.6 nM	–
COC(=O)c1cnc([C@H](Cc2ccccc2)C[C@H](O)[C@H](Cc2ccccc2)NC(=O)OC(C)(C)C)[nH]1	1800 nM	–
CC(C)c1c[nH]c([C@H](Cc2ccccc2)C[C@H](O)[C@H](Cc2ccccc2)NC(=O)[C@@H](NC(=O)OCc2ccccc2)[C@H](C)O)n1	1.4 nM	11 nM
CCOC(=O)N[C@H](C(=O)N[C@@H](Cc1ccccc1)[C@@H](O)C[C@@H](Cc1ccccc1)c1nc(C(C)C)c[nH]1)C(C)C	2.8 nM	77 nM
CC(C)(C)OC(=O)N[C@@H](Cc1ccccc1)[C@@H](O)C[C@@H](Cc1ccccc1)c1nccs1	3000 nM	–
CC(C)OC(=O)N[C@H](C(=O)N[C@@H](Cc1ccccc1)[C@@H](O)C[C@@H](Cc1ccccc1)c1ncc(C(C)C)[nH]1)C(C)C	7.9 nM	134 nM
CCC(C)C(=O)c1c[nH]c([C@H](Cc2ccccc2)C[C@H](O)[C@H](Cc2ccccc2)NC(=O)OC(C)(C)C)n1 (some centres not stated)	53 nM	950 nM
CCCc1cnc([C@H](Cc2ccccc2)C[C@H](O)[C@H](Cc2ccccc2)NC(=O)OC(C)(C)C)s1 (stereo in doubt; form 2)	410 nM	–
CCCc1cnc([C@H](Cc2ccccc2)C[C@H](O)[C@H](Cc2ccccc2)NC(=O)OC(C)(C)C)s1 (stereo in doubt; form 3)	4600 nM	–
CC(C)(C)OC(=O)N[C@@H](Cc1ccccc1)[C@@H](O)C[C@@H](Cc1ccccc1)c1ncc(C(=O)c2ccccc2)[nH]1	7800 nM	–
CC(C)(C)OC(=O)N[C@@H](Cc1ccccc1)[C@@H](O)C[C@@H](Cc1ccccc1)c1nc(C(=O)C2CCCC2)c[nH]1	150 nM	–
CCC(=O)c1cnc([C@H](Cc2ccccc2)C[C@H](O)[C@H](Cc2ccccc2)NC(=O)OC(C)(C)C)s1	3700 nM	–
